Results from patent US20240199623A1 (ILDONG PHARMACEUTICAL CO., LTD., priority 2020, published 2024).
≈ marks a conversion by molar mass, not a printed value.

Tests used:
[1] = Phosphate-buffered saline (PBS) solubility of compounds; assay type: physicochemical; conditions: aqueous buffer, thermodynamic from solid, PBS pH 7.5, 0.5 mg/mL, vortexed 90 min, filtered, LC-MS/MS, read-out: Solubility Range
Procedure: PBS solutions (pH 7.5) were prepared according to the following compositions and stored at 4° C. Test compounds were dissolved in PBS (pH 7.5) at 0.5 mg/mL and vortexed for 90 min. The PBS solution was sequentially filtered through a 0.45, 1.2, […] syringe filter. Concentration of test compounds were determined using LC-MS/MS with appropriate dilution of the samples.

human wild type-CFTR [2] = biological target: T1, human wild type-CFTR (Homo sapiens, UniProt P13569); test: Cell-based YFP assay; parameters: expressed in transfected cells; host or cells: CHO-K1 (Chinese hamster ovary); conditions: CHO-K1 cells expressing human wild type-CFTR and YFP-H148Q/I152L; forskolin 20 μM = 100% activity; read-out: Cell-based YFP Assay (EC50) Concentration Range
Summary of the method: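 CHO-K1 cells co-expressing human wild-type CFTR and YFP-H148Q/I152L halide sensor, grown 48 h at 37 °C, then in PBS. YFP quenching by I⁻ influx read at 37 °C after adding 140 mM I⁻ solution, sampled every 0.4 s for 14 s. Triplicates averaged; EC50 fitted.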

human wild type-CFTR [3] = biological target: T1, human wild type-CFTR; test: Short-circuit current measurement; assay type: cell-based; parameters: expressed in transfected cells; conditions: FRT cells expressing human wild type-CFTR; Forskolin 20 μM signal used as 100% activity; read-out: Short-circuit current measurement (EC50) Concentration range
Source text: Forskolin (Tocris cat. #1099), CFTRinh-172 (Tocris cat. #3430), amphotericin B (Tocris cat. #6930), dimethyl sulfoxide (Sigma cat. #D4540), EVC4000 Multi-Channel V/I Clamp (World Precision Instruments, Sarasota, FL), PowerLab 4/35 (AD Instruments, Castle Hill, Australia), Labchart Pro 7, GraphPad Prism 5 (GraphPad Software, Inc.). Fisher rat thyroid (FRT) cells expressing human wild type-CFTR were provided by Dr. Alan Verkman (University of California, San Francisco) and grown in DMEM/F12 medium (1:1) supplemented with 10% FBS, 2 mM glutamine, 100 units/ml penicillin and 100 μg/ml streptomycin. Snapwell inserts containing CF TR-expressing FRT cells were mounted in Ussing chambers (Physiologic Instruments, San Diego, CA). […] Forskolin, test compounds, and CFTRinh-172 were added to the apical and basolateral bath solution. Apical membrane current and short-circuit current were measured with an EVC4000 Multi-Channel V/I Clamp (World Precision Instruments, Sarasota, FL) and recorded using PowerLab 4/35 (AD Instruments, Castle Hill, Australia). Data were collected and analyzed with ADInstruments acquisition software Labchart Pro 7 software. The sampling rate was 4 Hz.

T1 sequence (P13569 whole entry): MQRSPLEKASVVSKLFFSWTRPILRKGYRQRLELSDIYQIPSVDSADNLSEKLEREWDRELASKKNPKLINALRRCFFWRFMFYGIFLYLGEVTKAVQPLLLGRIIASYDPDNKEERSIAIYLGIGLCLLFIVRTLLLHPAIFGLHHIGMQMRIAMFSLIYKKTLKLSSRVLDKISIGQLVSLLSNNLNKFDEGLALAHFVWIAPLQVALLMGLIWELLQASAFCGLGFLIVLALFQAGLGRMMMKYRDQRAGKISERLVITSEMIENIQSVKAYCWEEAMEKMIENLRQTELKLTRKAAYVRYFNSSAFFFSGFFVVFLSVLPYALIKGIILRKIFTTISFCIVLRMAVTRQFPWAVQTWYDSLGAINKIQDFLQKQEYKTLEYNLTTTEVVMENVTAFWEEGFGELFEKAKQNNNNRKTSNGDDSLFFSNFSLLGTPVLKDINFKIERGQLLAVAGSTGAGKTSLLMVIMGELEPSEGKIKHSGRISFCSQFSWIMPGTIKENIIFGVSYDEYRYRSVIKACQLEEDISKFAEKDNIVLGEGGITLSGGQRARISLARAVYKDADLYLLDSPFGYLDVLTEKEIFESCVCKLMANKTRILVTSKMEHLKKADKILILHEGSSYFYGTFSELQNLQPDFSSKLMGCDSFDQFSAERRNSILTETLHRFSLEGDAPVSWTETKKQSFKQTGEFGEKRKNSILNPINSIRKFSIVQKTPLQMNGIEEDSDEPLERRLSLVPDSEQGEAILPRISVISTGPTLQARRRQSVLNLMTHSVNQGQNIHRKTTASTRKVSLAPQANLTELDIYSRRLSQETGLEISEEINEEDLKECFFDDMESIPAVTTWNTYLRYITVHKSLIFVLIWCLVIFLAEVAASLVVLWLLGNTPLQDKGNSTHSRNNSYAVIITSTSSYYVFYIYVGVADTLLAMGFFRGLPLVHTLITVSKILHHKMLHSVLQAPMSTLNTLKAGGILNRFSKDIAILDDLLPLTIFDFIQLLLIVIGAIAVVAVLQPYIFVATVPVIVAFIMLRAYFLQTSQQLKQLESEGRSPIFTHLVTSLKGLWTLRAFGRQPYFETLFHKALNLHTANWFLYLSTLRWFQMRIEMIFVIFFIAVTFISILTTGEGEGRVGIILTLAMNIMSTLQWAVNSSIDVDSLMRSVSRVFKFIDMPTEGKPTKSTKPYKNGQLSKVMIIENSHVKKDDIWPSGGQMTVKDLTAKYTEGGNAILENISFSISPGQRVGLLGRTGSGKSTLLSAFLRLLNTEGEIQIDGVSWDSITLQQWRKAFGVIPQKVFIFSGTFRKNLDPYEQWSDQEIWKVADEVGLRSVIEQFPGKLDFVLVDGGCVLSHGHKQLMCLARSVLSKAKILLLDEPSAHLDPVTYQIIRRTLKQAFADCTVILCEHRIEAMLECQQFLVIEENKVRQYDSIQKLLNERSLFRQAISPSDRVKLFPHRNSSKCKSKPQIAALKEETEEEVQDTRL

SMILES	solubility at 90 min [1] [µg/mL]	EC50 (human wild type-CFTR [2]) [nM]	EC50 (human wild type-CFTR [3]) [nM]
COc1ccc(-c2ccnc3cc(C(=O)Nc4ccc(C(=O)O)cc4)nn23)cc1OC [Compound 14, 4-(7-(3,4-dimethoxyphenyl)pyrazolo[1,5-a]pyrimidine-2-carboxamido)benzoic acid]	0.1 to 10 (≈ 0.239 to 23.9 µM)	200 to 2000	≥ 2000
COc1ccc(-c2ccnc3cc(C(=O)Nc4ccccn4)nn23)cc1OC [Compound 17, 7-(3,4-dimethoxyphenyl)-N-(pyridin-2-yl)pyrazolo[1,5-a] pyrimidine-2-carboxamide]	< 0.1	< 200	< 200
CCOC(=O)CNC(=O)c1ccc(NC(=O)c2cc3nccc(-c4ccc(OC)c(OC)c4)n3n2)cc1 [Compound 28, ethyl (4-(7-(3,4-dimethoxyphenyl)pyrazolo [1,5-a]pyrimidine-2-carboxamido)benzoyl)glycinate]	< 0.1	< 200	< 200
COC(=O)c1ccc(NC(=O)c2cc3nccc(-c4ccc(OC)c(OC)c4)n3n2)nc1 [Compound 31, methyl 6-(7-(3,4-dimethoxyphenyl)pyrazolo [1,5-a]pyrimidine-2-carboxamido)nicotinate]	< 0.1	< 200	< 200
COc1ccc(-c2ccnc3cc(C(=O)Nc4ccc(C(=O)O)cn4)nn23)cc1OC [Compound 78, 6-(7-(3,4-dimethoxyphenyl)pyrazolo[1,5-a]pyrimidine-2-carboxamido) nicotinic acid]	–	200 to 2000	200 to 2000
CCOC(=O)N1CCN(C(=O)c2cc3nccc(-c4ccc(OC)c(OC)c4)n3n2)CC1 [Compound 86, ethyl 4-(7-(3,4-dimethoxyphenyl)pyrazolo[1,5-a]pyrimidine-2-carbonyl) piperazine-1-carboxylate]	–	200 to 2000	≥ 2000
CCOC(=O)N1CCN(C(=O)c2cc3nccc(-c4ccc(OC)c(OC)c4)n3n2)CC1 [Compound 111, ethyl 4-(7-(3,4-dimethoxyphenyl)pyrazolo[1,5-a]pyrimidine-2-carbonyl) piperazine-1-carboxylate]	–	200 to 2000	≥ 2000
COc1ccc(-c2ccnc3cc(C(=O)Nc4ccc(C(=O)N5CCN(C)CC5)cc4Cl)nn23)cc1OC [Compound 137, N-(2-chloro-4-(4-methylpiperazine-1-carbonyl)phenyl)-7-(3,4-dimethoxyphenyl)pyrazolo [1,5-a]pyrimidine-2-carboxamide]	–	200 to 2000	200 to 2000
COc1ccc(-c2ccnc3cc(C(=O)Nc4ccc(C(=O)OCCCN5CCN(C)CC5)cc4)nn23)cc1OC [Compound 165, 3-(4-methylpiperazin-1-yl)propyl 4-(7-(3,4-dimethoxyphenyl)pyrazolo[1,5-a]pyrimidine-2-carboxamido)benzoate]	< 0.1	200 to 2000	–
COc1ccc(-c2ccnc3cc(C(=O)Nc4ccc(C(=O)N5CC6(CN(C)C6)C5)cc4)nn23)cc1OC [Compound 166, 7-(3,4-dimethoxyphenyl)-N-(4-(6-methyl-2,6-diazaspiro[3.3]heptane-2-carbonyl)phenyl)pyrazolo [1,5-a]pyrimidine-2-carboxamide]	< 0.1	200 to 2000	–
COC(=O)c1ccc(NC(=O)c2cc3nccc(-c4ccc(OC)c(OC)c4)n3n2)cc1O [Compound 167, methyl 4-(7-(3,4-dimethoxyphenyl)pyrazolo [1,5-a]pyrimidine-2-carboxamido)-2-hydroxybenzoate]	< 0.1	< 200	–
COc1ccc(-c2ccnc3cc(C(=O)Nc4ccc(C(=O)O)c(O)c4)nn23)cc1OC [Compound 168, 4-(7-(3,4-dimethoxyphenyl)pyrazolo[1,5-a]pyrimidine-2-carboxamido)-2-hydroxybenzoic acid]	< 0.1	200 to 2000	–
COc1ccc(-c2ccnc3cc(C(=O)Nc4ccc(C(=O)N5CCOCC5)c(O)c4)nn23)cc1OC [Compound 169, 7-(3,4-dimethoxyphenyl)-N-(3-hydroxy-4-(morpholine-4-carbonyl)phenyl)pyrazolo[1,5-a]pyrimidine-2-carboxamide]	< 0.1	< 200	–
COc1ccc(-c2ccnc3cc(C(=O)Nc4ccc(C(=O)N5CCN(C)CC5)c(O)c4)nn23)cc1OC [Compound 170, 7-(3,4-dimethoxyphenyl)-N-(3-hydroxy-4-(4-methylpiperazine-1-carbonyl)phenyl)pyrazolo [1,5-a]pyrimidine-2-carboxamide]	0.1 to 10 (≈ 0.194 to 19.4 µM)	< 200	–
COc1ccc(-c2ccnc3cc(C(=O)Nc4ccc(C(=O)NCCN5CCN(C)CC5)cc4)nn23)cc1OC [Compound 178, 7-(3,4-dimethoxyphenyl)-N-(4-((2-(4-methylpiperazin-1-yl)ethyl)carbamoyl)phenyl)pyrazolo[1,5-a]pyrimidine-2-carboxamide]	> 10	200 to 2000	–
COc1ccc(-c2ccnc3cc(C(=O)Nc4ccc(OC(=O)[C@@H](NC(=O)OC(C)(C)C)C(C)C)cc4)nn23)cc1OC [Compound 200, 4-(7-(3,4-dimethoxyphenyl)pyrazolo[1,5-a]pyrimidine-2-carboxamido)phenyl(tert-butoxycarbonyl)-L-valinate]	–	< 200	< 200
COc1ccc(-c2ccnc3cc(C(=O)Nc4ccc(N5CCN(C)CC5)cn4)nn23)cc1OC [Compound 204, 7-(3,4-dimethoxyphenyl)-N-(5-(4-methylpiperazin-1-yl)pyridin-2-yl)pyrazolo[1,5-a]pyrimidine-2-carboxamide]	< 0.1	< 200	–
COc1ccc(-c2ccnc3cc(C(=O)Nc4ccc(NC(=O)[C@H](C)NC(=O)OC(C)(C)C)cc4)nn23)cc1OC [Compound 281]	< 0.1	< 200	–
COc1ccc(-c2ccnc3cc(C(=O)Nc4ccc(NC(=O)[C@@H](NC(=O)OC(C)(C)C)C(C)C)cc4)nn23)cc1OC [Compound 282, tert-butyl (S)-(1-((4-(7-(3,4-dimethoxyphenyl)pyrazolo [1,5-a]pyrimidine-2-carboxamido)phenyl)amino)-3-methyl-1-oxobutan-2-yl)carbamate]	< 0.1	< 200	–
COc1ccc(-c2ccnc3cc(C(=O)Nc4ccc(NC(=O)CN)cc4)nn23)cc1OC [Compound 283, N-(4-(2-aminoacetamido)phenyl)-7-(3,4-dimethoxyphenyl)pyrazolo [1,5-a]pyrimidine-2-carboxamide]	< 0.1	200 to 2000	–
COc1ccc(-c2ccnc3cc(C(=O)Nc4ccc(NC(=O)[C@H](C)N)cc4)nn23)cc1OC [Compound 284, (S)-N-(4-(2-amino-propanamido)phenyl)-7-(3,4-dimethoxyphenyl)pyrazolo [1,5-a]pyrimidine-2-carboxamide]	0.1 to 10 (≈ 0.217 to 21.7 µM)	< 200	–
COc1ccc(-c2ccnc3cc(C(=O)Nc4ccc(N5CCC(=O)CC5)cc4)nn23)cc1OC [Compound 285, 7-(3,4-dimethoxyphenyl)-N-(4-(4-oxopiperidin-1-yl)phenyl)pyrazolo [1,5-a]pyrimidine-2-carboxamide]	–	< 200	< 200
COc1ccc(-c2ccnc3cc(C(=O)Nc4ccc(N5CCCC5)cn4)nn23)cc1OC [Compound 289, 7-(3,4-dimethoxyphenyl)-N-(5-(pyrrolidin-1-yl)pyridin-2-yl)pyrazolo[1,5-a]pyrimidine-2-carboxamide]	–	< 200	< 200
